US20240279176A1, “SUBSTITUTED TRICYCLIC HETEROCYCLIC COMPOUNDS AS METALLO-BETA-LACTAMASE INHIBITORS” (priority 2021, published 2024)
Read-outs that look alike come from different tables or passages of the source.

Experiments:
[1] = system: Klebsiella pneumoniae ATCC BAA-2146; test: Minimum inhibitory concentration (MIC), broth-microdilution (CLSI); assay type: cell-based; settings: ATCCBAA2146, compound alone, K. pneumoniae ATCC BAA-2146, read-out: Intrinsic MIC
Excerpt: (§1) The strain included in the study was Klebsiella pneumoniae ATCC BAA-2146 (Himedia®, India) with presence of New Delhi metallo-β-lactamase (NDM-1) gene. The quality control reference strains Escherichia coli ATCC 25922 and Pseudomonas aeruginosa ATCC 27853 were procured from Himedia®, India.
MIC values were identified through broth-microdilution in sterilized 96-well polystyrene flat-bottom microtitre plates (Cole-Parmer®) according to the guideline of the Clinical and Laboratory Standards Institute (CLSI) (CLSI; Methods for dilution antimicrobial susceptibility tests for bacteria that grow aerobically; Clinical Laboratory Standards Institute, M07-A09, 2012). This method involves the use of BBL™ Cation-adjusted Mueller-Hinton II Broth (CA-MHB; BD) and the strain (Klebsiella pneumoniae ATCC BAA-2146) concentration was adjusted to 5×10^5 CFU/mL. After 16-18 h of incubation at various concentrations of Imipenem, Meropenem (Alfa Aesar), or test compounds at 37° C., MIC was defined as the lowest concentration of antibiotic or test compound with no visible growth.

[2] = system: Klebsiella pneumoniae ATCC BAA-2146; test: Checkerboard synergy assay in combination with Meropenem; assay type: cell-based; settings: K. pneumoniae ATCC BAA-2146; for Fold reduction in meropenem MIC in the presence of compounds (μg/mL) 4: compound at 4 μg/mL; for Fold reduction in meropenem MIC in the presence of compounds (μg/mL) 8: compound at 8 μg/mL; for Fold reduction in meropenem MIC in the presence of compounds (μg/mL) 16: compound at 16 μg/mL; for Fold reduction in meropenem MIC in the presence of compounds (μg/mL) 32: compound at 32 μg/mL
Excerpt: as §1
(§2) The fold modulation activity of test compounds, in combination with Imipenem or Meropenem, was checked against Klebsiella pneumoniae ATCC BAA-2146 strain by the broth-microdilution checkerboard synergy assay. The plates contained 5×10^5 CFU/mL bacterial inocula and 2-fold serial dilutions of the antibiotics (128-2 μg/mL) as well as test compounds (32-4 μg/mL) in a total volume of 200 μL of CA-MHB. Dimethyl sulfoxide (DMSO, ≤2.5%) was included as vehicle control. Following 16-18 h of incubation at 37° C., the MICs of antibiotics as well as drug combinations were visually inspected.

[3] = system: Klebsiella pneumoniae ATCC BAA-2146; test: Checkerboard synergy assay in combination with Imipenem; assay type: cell-based; settings: K. pneumoniae ATCC BAA-2146; for Fold reduction in Imipenem MIC in the presence of compounds (μg/mL) 4: compound at 4 μg/mL; for Fold reduction in Imipenem MIC in the presence of compounds (μg/mL) 8: compound at 8 μg/mL; for Fold reduction in Imipenem MIC in the presence of compounds (μg/mL) 16: compound at 16 μg/mL; for Fold reduction in Imipenem MIC in the presence of compounds (μg/mL) 32: compound at 32 μg/mL
Excerpt: as §1, §2

[4] = biological target: IMP-1 (Serratia marcescens, UniProt P52699); test: Enzyme activity: IC50 in fluorescence assay with cephalosporin substrate FC5; assay type: biochemical; settings: 100 pM IMP-1, 10 μM FC5, 10 min pre-incubation
Experimental: (§3) The Class B beta-lactamases activities were measured in the presence of the test inhibitors in a fluorescence assay against an in-house synthesized fluorescent cephalosporin substrate FC5 (Berkel, et. al. J. Med. Chem. 2013, 56(17), 6945). The enzymes (NDM-1, IMP-1) and the substrate were diluted in 20 mM HEPES, pH 7.4, supplemented with 300 mM NaCl and 10 μM ZnSO4. In the assay, the final concentration of enzyme was 50 pM, and 100 pM for NDM-1, and IMP-1 respectively, and the final concentration of FC5 was 1.5 μM for NDM-1 and 10 μM for IMP-1. The test inhibitors/compounds were dissolved in dimethylsulfoxide (DMSO) and diluted in the assay with assay buffer (20 mM HEPES, pH 7.4, supplemented with 5% DMSO, 300 mM NaCl and 10 μM ZnSO4), resulting in a final concentration range of 0.008 μM to 25 μM. The assays were performed in 96-well microplate (flat bottom, black). The test inhibitors were incubated with the MBL enzyme for 10 min at room temperature, followed by addition the substrate and the fluorescence was recorded immediately (λex 380 nm, λem 460 nm) on a microplate reader. Using the initial velocity data plotted against the inhibitor concentration, the half-maximal inhibitory concentrations were calculated by an IC50 curve-fitting model in GraphPad Prism 9 software.

[5] = biological target: NDM-1 (Klebsiella pneumoniae, UniProt C7C422); test: as above; assay type: biochemical; settings: 50 pM NDM-1, 1.5 μM FC5, 10 min pre-incubation
Experimental: as §3

Sequence of IMP-1 (P52699 19-246, looked up, species assumed): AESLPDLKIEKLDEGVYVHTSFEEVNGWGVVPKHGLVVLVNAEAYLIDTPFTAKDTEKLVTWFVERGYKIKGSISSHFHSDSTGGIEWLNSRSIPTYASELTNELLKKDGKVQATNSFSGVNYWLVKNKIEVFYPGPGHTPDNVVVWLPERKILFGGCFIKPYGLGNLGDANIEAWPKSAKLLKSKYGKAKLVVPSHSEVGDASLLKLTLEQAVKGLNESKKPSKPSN
Sequence of NDM-1 (C7C422 29-270, looked up): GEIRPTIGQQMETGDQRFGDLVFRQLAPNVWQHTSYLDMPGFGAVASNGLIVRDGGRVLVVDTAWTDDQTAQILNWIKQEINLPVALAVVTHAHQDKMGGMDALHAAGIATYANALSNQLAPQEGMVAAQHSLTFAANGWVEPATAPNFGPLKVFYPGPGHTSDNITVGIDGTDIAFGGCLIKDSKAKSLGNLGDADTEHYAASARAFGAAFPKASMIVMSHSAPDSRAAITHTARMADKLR

SMILES: Cc1cc(C)cc(-c2c(C(=O)O)[nH]c3c2CCc2ccccc2-3)c1 [Example 48, 3-(3,5-dimethylphenyl)-4,5-dihydro-1H-benzo[g]indole-2-carboxylic Acid]
- MIC ([1]; Imipenem series): > 128 mg/L
- MIC ([1]; meropenem series): > 128 mg/L
- Fold reduction in meropenem MIC in the presence of compounds (μg/mL) 4 [2]: 4 fold
- Fold reduction in meropenem MIC in the presence of compounds (μg/mL) 8 [2]: 4 fold
- Fold reduction in meropenem MIC in the presence of compounds (μg/mL) 16 [2]: 4 fold
- Fold reduction in meropenem MIC in the presence of compounds (μg/mL) 32 [2]: 8 fold
- Fold reduction in Imipenem MIC in the presence of compounds (μg/mL) 4 [3]: 4 fold
- Fold reduction in Imipenem MIC in the presence of compounds (μg/mL) 8 [3]: 4 fold
- Fold reduction in Imipenem MIC in the presence of compounds (μg/mL) 16 [3]: 8 fold
- Fold reduction in Imipenem MIC in the presence of compounds (μg/mL) 32 [3]: 8 fold
- IC50 [4]: 0.695 µM
- IC50 [5]: 0.252 µM

SMILES: O=C(O)c1[nH]c2c(c1-c1cccc(Cl)c1Cl)CCc1ccccc1-2 [Example 50, 3-(2,3-dichlorophenyl)-4,5-dihydro-1H-benzo[g]indole-2-carboxylic Acid]
- MIC ([1]; Imipenem series): > 128 mg/L
- MIC ([1]; meropenem series): > 128 mg/L
- Fold reduction in meropenem MIC in the presence of compounds (μg/mL) 8 [2]: 2 fold
- Fold reduction in meropenem MIC in the presence of compounds (μg/mL) 16 [2]: 2 fold
- Fold reduction in meropenem MIC in the presence of compounds (μg/mL) 32 [2]: 4 fold
- Fold reduction in Imipenem MIC in the presence of compounds (μg/mL) 4 [3]: 2 fold
- Fold reduction in Imipenem MIC in the presence of compounds (μg/mL) 8 [3]: 2 fold
- Fold reduction in Imipenem MIC in the presence of compounds (μg/mL) 16 [3]: 4 fold
- Fold reduction in Imipenem MIC in the presence of compounds (μg/mL) 32 [3]: 4 fold
- IC50 [4]: 25 µM
- IC50 [5]: 0.211 µM

SMILES: O=C(O)c1[nH]c2c(c1-c1cc(F)cc(F)c1)CCc1ccccc1-2 [Example 52, 3-(3,5-difluorophenyl)-4,5-dihydro-1H-benzo[g]indole-2-carboxylic Acid]
- MIC ([1]; Imipenem series): > 128 mg/L
- MIC ([1]; meropenem series): > 128 mg/L
- Fold reduction in meropenem MIC in the presence of compounds (μg/mL) 8 [2]: 2 fold
- Fold reduction in meropenem MIC in the presence of compounds (μg/mL) 16 [2]: 2 fold
- Fold reduction in meropenem MIC in the presence of compounds (μg/mL) 32 [2]: 4 fold
- Fold reduction in Imipenem MIC in the presence of compounds (μg/mL) 4 [3]: 4 fold
- Fold reduction in Imipenem MIC in the presence of compounds (μg/mL) 8 [3]: 4 fold
- Fold reduction in Imipenem MIC in the presence of compounds (μg/mL) 16 [3]: 8 fold
- Fold reduction in Imipenem MIC in the presence of compounds (μg/mL) 32 [3]: 8 fold
- IC50 [4]: 4.87 µM
- IC50 [5]: 0.158 µM

SMILES: Cc1ccc(-c2c(C(=O)O)[nH]c3c2CCc2ccccc2-3)c(F)c1 [Example 49, 3-(2-fluoro-4-methylphenyl)-4,5-dihydro-1H-benzo[g]indole-2-carboxylic Acid]
- MIC ([1]; Imipenem series): > 128 mg/L
- MIC ([1]; meropenem series): > 128 mg/L
- Fold reduction in meropenem MIC in the presence of compounds (μg/mL) 4 [2]: 2 fold
- Fold reduction in meropenem MIC in the presence of compounds (μg/mL) 8 [2]: 2 fold
- Fold reduction in meropenem MIC in the presence of compounds (μg/mL) 16 [2]: 4 fold
- Fold reduction in meropenem MIC in the presence of compounds (μg/mL) 32 [2]: 4 fold
- IC50 [4]: 2.05 µM
- IC50 [5]: 0.319 µM

SMILES: CC1Cc2c([nH]c(C(=O)O)c2-c2cc(F)cc(Cl)c2)-c2ccccc21 (stereo not shown) [Example 64, 3-(3-chloro-5-fluorophenyl)-5-methyl-4,5-dihydro-1H-benzo[g]indole-2-carboxylic Acid]
- MIC ([1]; Imipenem series): > 128 mg/L
- MIC ([1]; meropenem series): > 128 mg/L
- Fold reduction in Imipenem MIC in the presence of compounds (μg/mL) 4 [3]: 4 fold
- Fold reduction in Imipenem MIC in the presence of compounds (μg/mL) 8 [3]: 4 fold
- Fold reduction in Imipenem MIC in the presence of compounds (μg/mL) 16 [3]: 8 fold
- Fold reduction in Imipenem MIC in the presence of compounds (μg/mL) 32 [3]: 8 fold
- IC50 [4]: 0.821 µM
- IC50 [5]: 1.42 µM

SMILES: O=C(O)c1[nH]c2c(c1-c1cc(Cl)cc(Cl)c1)CCc1ccccc1-2 [Example 2, 3-(3,5-dichlorophenyl)-4,5-dihydro-1H-benzo[g]indole-2-carboxylic Acid]
- MIC ([1]; Imipenem series): > 64 mg/L
- MIC ([1]; meropenem series): > 128 mg/L
- Fold reduction in meropenem MIC in the presence of compounds (μg/mL) 4 [2]: 4 fold
- Fold reduction in meropenem MIC in the presence of compounds (μg/mL) 8 [2]: 8 fold
- Fold reduction in meropenem MIC in the presence of compounds (μg/mL) 16 [2]: 8 fold
- Fold reduction in meropenem MIC in the presence of compounds (μg/mL) 32 [2]: 16 fold
- IC50 [4]: 0.026 µM
- IC50 [5]: 0.036 µM
